Data reported in PubChem BioAssay AID248 (DTP/NCI, 2004).
Values joined by “and” are separate entries in the source; they are usually repeats but may differ in a detail not shown here. Equal entries are not always repeated. Inconclusive results and toxic doses are left out. No stated cut-off is given here; in the data, active means T/C of 150% or more; inactive means T/C below 125%.

System: L1210 leukemia ip in BDF1 mice, survival T/C
Assay: NCI In Vivo Anticancer Drug Screen. Data for tumor model L1210 Leukemia (intraperitoneal) in B6D2F1 (BDF1) mice
Conditions: endpoint: mean survival time, higher = longer survival
Procedure, shortened: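 In this screen, tumor-bearing mice given compound are compared to those given vehicle, and their survival values are reported as a treated-to-control quotient.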

[1] = dose: 100.0 mg/kg/injection, schedule: Q01DX001 (ip), vehicle: saline
[2] = dose: 200.0 mg/kg/injection, schedule: Q01DX001 (ip), vehicle: saline
[3] = dose: 400.0 mg/kg/injection, schedule: Q01DX001 (ip), vehicle: saline
[4] = dose: 100.0 mg/kg/injection, schedule: Q01DX009 (ip), vehicle: Klucel (hydroxypropylcellulose) (HPC)
[5] = dose: 200.0 mg/kg/injection, schedule: Q01DX009 (ip), vehicle: Klucel (hydroxypropylcellulose) (HPC)
[6] = dose: 400.0 mg/kg/injection, schedule: Q01DX009 (ip), vehicle: Klucel (hydroxypropylcellulose) (HPC)
[7] = dose: 100.0 mg/kg/injection, schedule: Q04DX002 (ip), vehicle: Klucel (hydroxypropylcellulose) (HPC)
[8] = dose: 50.0 mg/kg/injection, schedule: Q04DX003 (ip), vehicle: saline
[9] = dose: 100.0 mg/kg/injection, schedule: Q04DX003 (ip), vehicle: saline
[10] = dose: 100.0 mg/kg/injection, schedule: Q01DX009 (ip), vehicle: saline
[11] = dose: 50.0 mg/kg/injection, schedule: Q01DX001 (ip), vehicle: saline

Measured: T/C

CC(=O)OCC1OC(OC(C)C)[CH]([Hg][S]Cc2ccccc2)C(OC(C)=O)C1OC(C)=O (configuration not stated)
inactive: dose: 0.5 mg/kg/injection, schedule: Q01DX015 (ip), vehicle: carboxymethylcellulose (CMC) 102 % of control | dose: 1.0 mg/kg/injection, schedule: Q01DX015 (ip), vehicle: carboxymethylcellulose (CMC) 98 % of control | dose: 2.0 mg/kg/injection, schedule: Q01DX015 (ip), vehicle: carboxymethylcellulose (CMC) 104 % of control | dose: 4.0 mg/kg/injection, schedule: Q01DX015 (ip), vehicle: carboxymethylcellulose (CMC) 96 % of control and 108 % of control | dose: 8.0 mg/kg/injection, schedule: Q01DX015 (ip), vehicle: carboxymethylcellulose (CMC) 88 % of control

CCOCC(O)CO (configuration not stated)
inactive: [1] 110 % of control | [2] 98 % of control | [3] 96 % of control

NC(=O)NC1CON(C(N)=O)C1=O (configuration not stated)
inactive: dose: 100.0 mg/kg/injection, schedule: Q04DX002 (ip), vehicle: saline 94 % of control | dose: 200.0 mg/kg/injection, schedule: Q04DX002 (ip), vehicle: saline 112 % of control | dose: 400.0 mg/kg/injection, schedule: Q04DX002 (ip), vehicle: saline 94 % of control

Cc1ccc(S(=O)(=O)NC(CSSCC(NS(=O)(=O)c2ccc(C)cc2)C(=O)OC(C)(C)C)C(=O)OC(C)(C)C)cc1 (configuration not stated)
inactive: [4] 101 % of control | dose: 100.0 mg/kg/injection, schedule: Q04DX003 (ip), vehicle: Klucel (hydroxypropylcellulose) (HPC) 98 % of control | [5] 106 % of control | dose: 200.0 mg/kg/injection, schedule: Q04DX003 (ip), vehicle: Klucel (hydroxypropylcellulose) (HPC) 101 % of control | [6] 95 % of control | dose: 400.0 mg/kg/injection, schedule: Q04DX003 (ip), vehicle: Klucel (hydroxypropylcellulose) (HPC) 98 % of control

CCOC(=O)Nc1ccc([N+](=O)[O-])cc1[N+](=O)[O-]
inactive: dose: 100.0 mg/kg/injection, schedule: Q01DX001 (ip), vehicle: saline with Tween-80 101 % of control | dose: 100.0 mg/kg/injection, schedule: Q04DX003 (ip), vehicle: saline with Tween-80 100 % of control | dose: 200.0 mg/kg/injection, schedule: Q01DX001 (ip), vehicle: saline with Tween-80 98 % of control | dose: 200.0 mg/kg/injection, schedule: Q04DX003 (ip), vehicle: saline with Tween-80 93 % of control | dose: 400.0 mg/kg/injection, schedule: Q01DX001 (ip), vehicle: saline with Tween-80 95 % of control | dose: 400.0 mg/kg/injection, schedule: Q04DX003 (ip), vehicle: saline with Tween-80 98 % of control

CCOC(OCC)C(C)(C)CNC
inactive: dose: 100.0 mg/kg/injection, schedule: Q01DX001 (ip), vehicle: saline sonified 90 % of control | dose: 200.0 mg/kg/injection, schedule: Q01DX001 (ip), vehicle: saline sonified 101 % of control | dose: 400.0 mg/kg/injection, schedule: Q01DX001 (ip), vehicle: saline sonified 107 % of control

Cc1cc(OC(=O)Nc2ccc(Cl)cc2C(F)(F)F)c(C)cc1Cl
inactive: dose: 50.0 mg/kg/injection, schedule: Q01DX009 (ip), vehicle: saline with Tween-80 98 % of control | dose: 100.0 mg/kg/injection, schedule: Q01DX009 (ip), vehicle: saline with Tween-80 95 % of control | dose: 200.0 mg/kg/injection, schedule: Q01DX009 (ip), vehicle: saline with Tween-80 109 % of control

CCOC(=O)/C(N=O)=C(\O)c1ccc2ccccc2n1
inactive: dose: 25.0 mg/kg/injection, schedule: Q01DX009 (ip), vehicle: water 115 % of control | dose: 50.0 mg/kg/injection, schedule: Q01DX009 (ip), vehicle: water 101 % of control | dose: 100.0 mg/kg/injection, schedule: Q01DX009 (ip), vehicle: water 108 % of control | dose: 200.0 mg/kg/injection, schedule: Q01DX009 (ip), vehicle: water 89 % of control | dose: 400.0 mg/kg/injection, schedule: Q01DX009 (ip), vehicle: water 94 % of control

CCc1ccccc1NC(=O)Nc1ccc(C(=O)O)c(O)c1
inactive: [4] 95 % of control | [7] 98 % of control | [5] 101 % of control | dose: 200.0 mg/kg/injection, schedule: Q04DX002 (ip), vehicle: Klucel (hydroxypropylcellulose) (HPC) 102 % of control | [6] 108 % of control | dose: 400.0 mg/kg/injection, schedule: Q04DX002 (ip), vehicle: Klucel (hydroxypropylcellulose) (HPC) 102 % of control

O=C1/C(=C/c2ccccc2[N+](=O)[O-])CCc2ccccc21
inactive: dose: 100.0 mg/kg/injection, schedule: Q04DX003 (ip), vehicle: acetone 96 % of control | dose: 200.0 mg/kg/injection, schedule: Q04DX003 (ip), vehicle: acetone 106 % of control | dose: 400.0 mg/kg/injection, schedule: Q04DX003 (ip), vehicle: acetone 95 % of control

CCOC(=O)C(OC(=O)c1ccccc1)C(OC(=O)c1ccccc1)C(=O)OCC (configuration not stated)
inactive: [1] 102 % of control | [2] 100 % of control | [3] 93 % of control

COc1ccc(N=Cc2cc(Br)cc(Br)c2O)cc1.COc1ccc(N=Cc2cc(Br)cc(Br)c2O)cc1.[Co]
inactive: [8] 92 % of control | [9] 92 % of control | dose: 200.0 mg/kg/injection, schedule: Q04DX003 (ip), vehicle: saline 95 % of control

O=C1OC(c2ccc([N+](=O)[O-])cc2)=N/C1=C\c1cccc([N+](=O)[O-])c1
inactive: dose: 100.0 mg/kg/injection, schedule: Q01DX009 (ip), vehicle: other 96 % of control | dose: 200.0 mg/kg/injection, schedule: Q01DX009 (ip), vehicle: other 100 % of control | dose: 400.0 mg/kg/injection, schedule: Q01DX009 (ip), vehicle: other 106 % of control

CCOC(=O)CC[P+](c1ccccc1)(c1ccccc1)c1ccccc1
inactive: dose: 75.0 mg/kg/injection, schedule: Q01DX001 (ip), vehicle: saline 103 % of control | dose: 75.0 mg/kg/injection, schedule: Q04DX003 (ip), vehicle: saline 106 % of control | dose: 150.0 mg/kg/injection, schedule: Q01DX001 (ip), vehicle: saline 109 % of control | dose: 150.0 mg/kg/injection, schedule: Q04DX003 (ip), vehicle: saline 105 % of control | dose: 300.0 mg/kg/injection, schedule: Q01DX001 (ip), vehicle: saline 101 % of control | dose: 300.0 mg/kg/injection, schedule: Q04DX003 (ip), vehicle: saline 107 % of control

COc1cc(Cn2cccc2/C=N/NC(N)=S)cc(OC)c1
inactive: dose: 25.0 mg/kg/injection, schedule: Q04DX002 (ip), vehicle: Klucel (hydroxypropylcellulose) (HPC) 105 % of control | dose: 50.0 mg/kg/injection, schedule: Q04DX002 (ip), vehicle: Klucel (hydroxypropylcellulose) (HPC) 111 % of control | [7] 111 % of control

CC(=O)NC(C)C(C)(C)O (configuration not stated)
inactive: [10] 101 % of control | dose: 200.0 mg/kg/injection, schedule: Q01DX009 (ip), vehicle: saline 98 % of control | dose: 400.0 mg/kg/injection, schedule: Q01DX009 (ip), vehicle: saline 103 % of control

CN=[N+]([O-])C1(OC(C)=O)CCCC1
inactive: dose: 6.25 mg/kg/injection, schedule: Q01DX001 (ip), vehicle: saline 117 % of control | dose: 12.5 mg/kg/injection, schedule: Q01DX001 (ip), vehicle: saline 110 % of control | dose: 25.0 mg/kg/injection, schedule: Q01DX001 (ip), vehicle: saline 117 % of control | [11] 113 % of control

CC(C)CCOC(CN)C(Cl)(Cl)Cl (configuration not stated)
inactive: dose: 25.0 mg/kg/injection, schedule: Q01DX009 (ip), vehicle: saline 96 % of control and 107 % of control | dose: 25.0 mg/kg/injection, schedule: Q04DX002 (ip), vehicle: saline 98 % of control and 106 % of control | dose: 25.0 mg/kg/injection, schedule: Q04DX003 (ip), vehicle: saline 118 % of control | dose: 50.0 mg/kg/injection, schedule: Q01DX009 (ip), vehicle: saline 96 % of control and 100 % of control | dose: 50.0 mg/kg/injection, schedule: Q04DX002 (ip), vehicle: saline 95 % of control | [8] 102 % of control | [10] 98 % of control and 100 % of control | [9] 96 % of control and 109 % of control

Fc1c(Cl)c(F)c(Cl)c(F)c1Cl
inactive: dose: 100.0 mg/kg/injection, schedule: Q01DX001 (ip), vehicle: carboxymethylcellulose (CMC) 94 % of control | dose: 200.0 mg/kg/injection, schedule: Q01DX001 (ip), vehicle: carboxymethylcellulose (CMC) 97 % of control | dose: 400.0 mg/kg/injection, schedule: Q01DX001 (ip), vehicle: carboxymethylcellulose (CMC) 94 % of control

ClC1CCCCCCCCC1
inactive: [11] 122 % of control | [1] 95 % of control | [3] 92 % of control
